In publication PMC7711817, “Quantitative, High-Throughput Assays for Proteolytic Degradation of Amylin” (Methods and Protocols, 2020):
“Also recorded” adds a separate entry of the source. Where two headings read alike, the source gives them in different places. Each block holds one substance with its values, some of them ahead of it. Where no end group is shown, it is not given here.

Legend:
avidin-agarose = experiment: Avidin-agarose precipitation of fluoresceinated and biotinylated amylin substrates; format: binding; settings: for precipitation by / binding to avidin(-agarose) of uncleaved substrate: uncleaved substrate (- IDE), 1 μM, fluorescence read-out
From the text: In previous work, we developed robust proteolytic degradation assays for Aβ [18] and glucagon on the basis of synthetic versions of these substrates containing fluorescein at the N‑terminus and biotin (in the form of Lys(Ahx-biotin)) at the C-terminus. This general approach enables a facile method for detecting hydrolysis, which we call avidin-agarose precipitation (AP). Briefly, hydrolysis can be readily quantified by removing the intact (biotinylated and fluoresceinated) substrates with avidin-agarose, then quantifying the remaining (fluoresceinated only) proteolytic fragments by fluorescence. This approach has the advantage of being readily implementable in any laboratory equipped with a fluorescence reader. Although convenient, the AP protocol requires centrifugation and liquid transfer steps that make it less amenable to high-throughput or robotized applications (Figure 1a).
Because the C-terminal portion of human amylin is the most aggregation-prone region of the peptide, we hypothesized that strong secondary structure in this area may have rendered the biotin moiety inaccessible to productive interactions with avidin. […] In one version, substrate 2 (Figure 1c; Table 1), we swapped the positions of the fluorescein and biotin groups, while in the other, substrate 3 (Figure 1d; Table 1), we maintained their placement at the N‑ and C-termini, respectively. […] On the basis of these preliminary results, we elected to use substrate 3 for downstream assay development, renaming it FrAB (fluorescein-rodent amylin-biotin). As expected, hydrolysis of FrAB could be readily monitored using the AP protocol, with hydrolysis resulting in a steady increase in fluorescence signal as a function of time in the presence of low quantities of IDE (Figure 1e).

recombinant human IDE [1] = biological target: T1, recombinant human IDE (Homo sapiens, UniProt P14735); experiment: Fluorescence change on full cleavage by IDE; format: biochemical; set-up: made in house; settings: complete hydrolysis by excess IDE, 1 μM substrate, before avidin-agarose precipitation
Method: Substrates were dissolved in DMSO as 1 mM stocks as calculated from the manufacturer-provided weight of lyophylized peptide and its MW, taking into account purity levels. […] The specific activity of recombinant IDE was verified to be within 5% of the value determined from protein concentration (quantified by nanodrop).
For fluorescence-dequenching assays, reactions were typically performed directly in low-volume 384-well microplates, and because the measurements could be monitored continuously, there was no need to stop the reactions. To that end, 3× IDE solution (10 µL) was combined with 3× compound or DMSO (10 µL) and allowed to equilibrate for ≥5 min at room temperature. Reactions were initiated by addition of 3× FrAB substrate (10 µL), typically at 100 nM final concentration. Fluorescence (λex = 336 nm, λem = 490 nm) was monitored repeatedly at frequent intervals (e.g., 30 s) on a multilabel plate reader (SpectraMAX, Molecular Devices, San Jose, CA, USA) using the default fluorescence measurement protocol.

[2] = system: beta-site APP-cleaving enzyme 2 (BACE2); settings: cited from earlier work
From the text: Amylin is a 37-residue peptide with a highly conserved sequence that is present in all mammals. To be fully active, two major post-translational modifications are required: a C-terminal amide (Tyr37) and a disulfide bond between two cysteine residues found at positions 2 and 7 [6]. […] As is true for other amyloidogenic substrates, such as the amyloid β-protein (Aβ), it is likely that multiple amylin proteases exist that work in ...

[3] = system: insulin-degrading enzyme (IDE); settings: cited from earlier work
From the text: Amylin is a 37-residue peptide with a highly conserved sequence that is present in all mammals. To be fully active, two major post-translational modifications are required: a C-terminal amide (Tyr37) and a disulfide bond between two cysteine residues found at positions 2 and 7 [6]. […] As is true for other amyloidogenic substrates, such as the amyloid β-protein (Aβ), it is likely that multiple amylin proteases exist that work in ... || We also developed a FRET-based fluorescence dequenching assay, which was successful in many respects, but about which some caution is warranted. First, the particular placement of the fluorescing EDANS and quenching DABCYL groups was designed to be optimal for a known cleavage site hydrolyzed by IDE [26]. This particular placement may not be ideal for other amylin proteases, depending on where they cleave the peptide. Secondly, whereas the FrAB-based AP and FP protocols both yielded kinetic parameters close to one another and also similar in magnitude to those obtained for other IDE substrat ...

[4] = Effect of avidin concentration on FP (mP) of FrAB; format: binding
From the text: To assess the suitability of FrAB to the FP protocol, we measured the degree of depolarization (measured in millipolarization units, mP) in uncleaved versus fully cleaved substrate in the absence or presence of excess avidin. […] Not only was substantially less depolarization observed with the intact substrate alone, but the depolarization was reduced even further by the addition of avidin (Figure 1g). As expected from the preceding results, hydrolysis of FrAB as a function of time could be readily monitored using the FP protocol (Figure 1h).
Avidin (and avidin-agarose) is an expensive reagent, and thus it is valuable to establish the minimum avidin/FrAB ratio necessary for reliable results. To that end, we added varying amounts of avidin to a fixed quantity (100 nM) of both cleaved and uncleaved FrAB and assessed the results using the FP protocol. […] Accordingly, we recommend that a minimum avidin/FrAB ratio of ≈10:1 be used in practice.

recombinant human IDE [5] = biological target: T1, recombinant human IDE; settings: FrAB substrate, AP protocol, 1 nM IDE; mean ± SEM of four independent replications
Method: The specific activity of recombinant IDE was verified to be within 5% of the value determined from protein concentration (quantified by nanodrop).
To ensure homogeneity of solution concentrations, we mixed all solutions well by gentle rocking on a nutator for ≥10 min at room temp (21–23 °C), and dispensed them manually using 16-channel pipettors fitted with 20-µL FinnTip pipette tips. For experiments conducted in 384-well plates, or transfers thereto, mixing was performed by ≥3 rounds of trituration after dispensing of the final solution. […] After we carefully removed the tubes from the centrifuge to avoid disturbing the pelleted avidin-agarose, the supernatant was transferred to low-volume 384-well microplates (30 µL/well), then fluorescence (λex = 485 nm, λem = 515 nm) was read on a multilabel plate reader (SpectraMAX, Molecular Devices, San Jose, CA, USA).
(§1) For all assays, results were normalized to data from negative (0% hydrolysis, no IDE) and positive (100% hydrolysis, excess IDE) controls and, where appropriate, expressed as percent hydrolysis. In the case of AP-based assays, percent hydrolysis was a linear function of the percent maximal change in relative fluorescence (RFU; %ΔRFU) between positive and negative controls. […]

recombinant human IDE [6] = biological target: T1, recombinant human IDE; settings: FrAB substrate, FP protocol (corrected), 1 nM IDE; mean ± SEM of four independent replications
Method: For fluorescence polarization (FP)-based assays, reactions were typically performed directly in low-volume 384-well microplates. To that end, 3× IDE solution (8 µL) was combined with 3× compound or DMSO (8 µL) and allowed to equilibrate for ≥5 min at room temperature. Reactions were initiated by addition of 3× FrAB substrate (8 µL), typically at 100 nM final concentration, except where indicated. After the appropriate incubation period, reactions were terminated by addition of 4× FP Stop Buffer (8 µL; PBS/0.05% biotin-free BSA containing a final concentration of 2 mM 1,10-phenanthroline and 10-fold molar excess avidin (monomer)), triturated ≥3 times to ensure even mixing. […] Fluorescence polarization (λex = 485 nm, λem = 515 nm) was read on a multilabel plate reader (SpectraMAX M5^e, Molecular Devices, San Jose, CA, USA) using the default fluorescence polarization protocol, with the g-factor value maintained at 1.0. high-throughput screening (HTS) being performed manually using a 16-channel pipettor.
as §1

[7] = cited from earlier work
From the text: Amylin, also known as islet amyloid polypeptide, is a peptide hormone that is stored in pancreatic beta-cells and co-secreted with insulin in response to many factors, including glucose, arginine, and fatty acids. Amylin plays a role in inhibiting glucagon secretion and delaying gastric emptying as well as modulating other aspects of food processing and satiety.

precipitation by / binding to avidin(-agarose) of uncleaved substrate (avidin-agarose): biotin does not bind to avidin
fluorescence increase relative to uncleaved substrate (in words) (recombinant human IDE [1]): modest increase in fluorescence
Substance: [5-FAM]KCNTATCATQRLANFLVHSSNNFGAILSSTNVGSNTY[Lys(Ahx-biotin)]-amide (disulfide) (5-FAM N-term, Lys(Ahx-biotin) C-term amide, disulfide) [Substrate 1]
precipitation by / binding to avidin(-agarose) of uncleaved substrate (avidin-agarose; listed as substrate 1): could not be precipitated by avidin-agarose

Substance: amylin: 37-residue pancreatic peptide hormone, also known as islet amyloid polypeptide (KCNTATCATQRLANFLVHSSNNFGAILSSTNVGSNTY; not fully specified (C-terminus, bridges); cysteine pairing not given here; UniProt P10997 34-70, looked up)
hydrolysis by BACE2 [2]: can be hydrolyzed
hydrolysis by IDE [3]: can be hydrolyzed

EC50 ([4]; avidin (monomer) concentration, uncleaved FrAB 100 nM, FP, n = 4 (mean ± SEM), read-out: apparent EC50 of avidin for increase in mP): 33.5 ± 7.5 nM
Substance: avidin: avidin, a 64-kDa tetramer; egg white avidin [reference compound]
avidin concentration at which increase in mP values reaches a plateau ([4]; avidin (monomer), 100 nM FrAB, FP protocol): ≈ 1 µM

Substance: fluorescein-rodent amylin-biotin [FrAB]
fluorescence of fully cleaved substrate after avidin-agarose precipitation (avidin-agarose; fully cleaved by IDE, 1 μM substrate, listed as substrate 3): remained constant before and after AP; also recorded: strong fluorescence signal after precipitation
precipitation by / binding to avidin(-agarose) of uncleaved substrate (avidin-agarose; listed as substrate 3): readily precipitated by avidin-agarose
kcat/KM (recombinant human IDE [5]): ≈ 1 × 10^7 M^-1 s^-1
depolarization of light by fully cleaved substrate ([4]; FrAB 1 μM, fully hydrolyzed (+ IDE) vs. uncleaved, FP): significantly more than uncleaved substrate
effect of avidin on mP of fully cleaved substrate ([4]; fully cleaved FrAB, 100 nM, FP protocol): unaffected by avidin; also recorded: unaffected even by very high concentrations of avidin
kcat/KM (recombinant human IDE [6]): ≈ 1 × 10^7 M^-1 s^-1

Substance: glucagon: peptide hormone relevant to glucose homeostasis
degradation by IDE [3]: IDE also degrades

Substance: human amylin: aggregation-prone human form of amylin (KCNTATCATQRLANFLVHSSNNFGAILSSTNVGSNTY; not fully specified (C-terminus, bridges); cysteine pairing not given here; UniProt P10997 34-70, looked up)
aggregation propensity ([7]; human amylin): highly aggregation-prone

Substance: insulin: peptide hormone relevant to glucose homeostasis
degradation by IDE [3]: IDE also degrades

Substance: rodent amylin: rodent amylin, far less prone to aggregation than the human peptide
aggregation propensity ([7]; rodent amylin vs. human peptide): far less prone to aggregation and secondary structure formation than the human peptide
